Values of other authors, collected in publication PMC10014483 (Bioorganic & Medicinal Chemistry Letters, 2023).

Assays:
[1] = mice
SARS-CoV-2 = details: transgenic mouse model of SARS-CoV-2 infection, orally effective

CC(C)(C)[C@H](NC(=O)C(F)(F)F)C(=O)N1C[C@H]2[C@@H]([C@H]1C(=O)N[C@H](C#N)C[C@@H]1CCNC1=O)C2(C)C [Nirmatrelvir]
oral bioavailability: unsatisfied
plasma half-life: short

CC(C)(C)OC(=O)Nc1cccn([C@@H](CC2CC2)C(=O)N[C@@H](C[C@@H]2CCNC2=O)C(=O)C(=O)NCc2ccccc2)c1=O [Compound 13b]
toxicity [1]: low toxicity

CC1(C)[C@@H]2[C@@H](C(=O)N[C@H](C=O)C[C@@H]3CCNC3=O)N(C(=O)COc3ccc(OC(F)(F)F)cc3)C[C@@H]21 [MI-09]
viral load in the lungs and lung lesions (SARS-CoV-2): significantly reduced
